Data on three molecules can be found in patent US8722849B2, “Polypeptides” (Novo Nordisk A/S, priority 2011, dated 2014).

Each structure is given as a SMILES string. Where two headings read alike, the source gives them in different places. Starred links: 1 amine or outer side, 2 acyl side, 3 side chain; linkers in the order of their positions; H or OH if unused. Positions of bridges follow the written chain, without caps; N, C: chain ends. Residues, ends and D or L forms follow the SMILES beside them. *: point of attachment. C20 diacid = O=C(O)CCCCCCCCCCCCCCCCCCC(=O)*; γGlu = O=C(O)[C@H](CCC(=O)[*:2])N[*:1]

Data set [1] concerns the target T1, human amylin receptor (amylin 3(a) receptor: human calcitonin receptor + RAMP-3) (Homo sapiens, UniProt O60896+P30988).
T1 construct: expressed in transfected cells; host or cells: BHK570
T1 sequence (P30988 25-474): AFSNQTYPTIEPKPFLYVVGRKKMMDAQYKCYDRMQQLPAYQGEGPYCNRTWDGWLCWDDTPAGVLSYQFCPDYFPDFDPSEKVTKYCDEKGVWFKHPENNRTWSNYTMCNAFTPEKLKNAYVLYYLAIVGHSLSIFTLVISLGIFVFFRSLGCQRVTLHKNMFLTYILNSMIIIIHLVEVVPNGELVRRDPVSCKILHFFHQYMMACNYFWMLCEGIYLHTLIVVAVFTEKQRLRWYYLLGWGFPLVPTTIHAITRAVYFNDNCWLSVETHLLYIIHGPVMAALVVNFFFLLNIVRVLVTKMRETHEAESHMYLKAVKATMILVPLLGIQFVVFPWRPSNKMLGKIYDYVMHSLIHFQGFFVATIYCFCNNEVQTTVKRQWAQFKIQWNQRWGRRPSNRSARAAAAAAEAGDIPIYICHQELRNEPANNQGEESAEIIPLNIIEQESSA
T1 sequence (O60896 24-148 partner): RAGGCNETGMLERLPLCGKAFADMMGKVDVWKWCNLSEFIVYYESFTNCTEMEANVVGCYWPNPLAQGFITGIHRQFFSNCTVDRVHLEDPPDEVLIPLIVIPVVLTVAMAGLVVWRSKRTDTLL
Kind of data set: Assay (II)a functional CRE-luciferase assay, human amylin receptor. In kind it is cell-based.

For data set [2], the target named is T2, human calcitonin receptor (Homo sapiens, UniProt P30988).
T2 construct: expressed in transfected cells; host or cells: BHK570
T2 sequence (P30988 25-474): T1 sequence (P30988 25-474)
Kind of data set: Assay (II)a functional CRE-luciferase assay, human calcitonin receptor. The class given is cell-based.

The nature of data set [3]: Assay (III) ThT fibrillation assay for physical stability. In kind it is physicochemical. In a few lines: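 Freshly prepared formulations, pH-adjusted, with 1 μM ThT; four or eight replicates incubated at 37 °C under 960 rpm orbital shaking. Fluorescence (ex 444/em 485 nm) read every 20 min; […]. Peptide concentration measured by RP-HPLC before and after the run.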

The nature of data set [4]: Assay (IV) determination of solubility. The class given is physicochemical. In a few lines: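 Stock ~500 nmol/ml in water; 1:1 with 100 mM buffer, pH 3.0–8.0 (glycylglycine ≤5.0, bistrispropane ≥6.0); 18 h RT; spin; HPLC quantitation of soluble polypeptide.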
[5] abbreviates: bistrispropane buffer, pH 6, pH 6.0, read-out: Solubility pH 6.0.
Where [6] appears, read: bistrispropane buffer, pH 6.5, pH 6.5, read-out: Solubility pH 6.5.
[7] abbreviates: bistrispropane buffer, pH 7, pH 7.0, read-out: Solubility pH 7.0.
Where [8] appears, read: bistrispropane buffer, pH 7.5, pH 7.5, read-out: Solubility pH 7.5.
The mark [9] stands for this setting: bistrispropane buffer, pH 8, pH 8.0, read-out: Solubility pH 8.0.
Where [10] appears, read: glycylglycine buffer, pH 3, pH 3.0, read-out: Solubility pH 3.0.
Setting [11] is: glycylglycine buffer, pH 4, pH 4.0, read-out: Solubility pH 4.0.
Setting [12] is: glycylglycine buffer, pH 5, pH 5.0, read-out: Solubility pH 5.0.
Where [13] appears, read: Table 2, BHK amylin 3(a)-receptor/CRE-luc cells.
Where [14] appears, read: Table 7, human calcitonin (CTa) receptor.
Setting [15] is: bistrispropane buffer, pH 7, pH 7.0, 18 hours at room temperature, Table 3, read-out: Solubility pH 7.0.
Where [16] appears, read: glycylglycine buffer, pH 4, pH 4.0, 18 hours at room temperature, Table 2, read-out: Solubility pH 4.0.

In the case of `CC[C@H](C)[C@H](NC(=O)[C@@H]1CCCN1C(=O)CNC(=O)[C@H](Cc1ccccc1)NC(=O)[C@H](CC(N)=O)NC(=O)[C@H](CC(N)=O)NC(=O)[C@H](CO)NC(=O)[C@H](CO)NC(=O)[C@H](Cc1c[nH]cn1)NC(=O)[C@@H](NC(=O)[C@H](CC(C)C)NC(=O)[C@H](Cc1ccccc1)NC(=O)[C@H](CC(N)=O)NC(=O)[C@H](C)NC(=O)[C@H](CC(C)C)NC(=O)[C@H](CCCNC(=N)N)NC(=O)[C@H](CCC(N)=O)NC(=O)[C@@H](NC(=O)[C@H](C)NC(=O)[C@@H]1CSSC[C@H](NC(=O)[C@H](CCC(=O)O)NC(=O)[C@H](CCCNC(=N)N)NC(=O)[C@H](CCC(=O)O)NC(=O)CC[C@H](NC(=O)CCCCCCCCCCCCCCCCCCC(=O)O)C(=O)O)C(=O)N[C@@H](CC(N)=O)C(=O)N[C@@H]([C@@H](C)O)C(=O)N[C@@H](C)C(=O)N[C@@H]([C@@H](C)O)C(=O)N1)[C@@H](C)O)C(C)C)C(=O)N[C@@H](CC(C)C)C(=O)N1CCC[C@H]1C(=O)N1CCC[C@H]1C(=O)N[C@H](C(=O)N[C@@H](CC(N)=O)C(=O)N[C@H](C(=O)NCC(=O)N[C@@H](CO)C(=O)N[C@@H](CC(N)=O)C(=O)N[C@H](C(=O)N1CCC[C@H]1C(N)=O)[C@@H](C)O)C(C)C)[C@@H](C)O` [Example 122, N-alpha-[(S)-4-Carboxy-4-(19-carboxynonadecanoylamino)butyryl]-Glu-Arg-[Glu1,Pro37]-pramlintide] ({C20 diacid-γGlu}-ERECNTATCATQRLANFLVHSSNNFGPILPPTNVGSNTP-NH2; disulfide 4-9 (inferred); C-terminus assumed), the EC50 in data set [1] (Table 6, human amylin receptor) stood at 0.063 nM; in data set [2] (Table 11, read-out: CTa receptor human EC50) it was 0.061 nM. For the same molecule, the “ThT pH 4.0 lag time (h)” value in data set [3] (ThT fibrillation assay) turned out to be 0.7 h. Further, the solubility at 18 h in data set [4] (setting [5]), in data set [4] (setting [6]), in data set [4] (setting [7]), in data set [4] (setting [8]), in data set [4] (setting [9]) and in data set [4] (setting [10]) was > 200 µM each time. Moreover, the solubility at 18 h in data set [4] (setting [11]) and in data set [4] (setting [12]) was > 200 µM in each case.
Take `CC[C@H](C)[C@H](NC(=O)[C@@H]1CCCN1C(=O)CNC(=O)[C@H](Cc1ccccc1)NC(=O)[C@H](CC(N)=O)NC(=O)[C@H](CC(N)=O)NC(=O)[C@H](CO)NC(=O)[C@H](CO)NC(=O)[C@H](Cc1c[nH]cn1)NC(=O)[C@H](Cc1c[nH]cn1)NC(=O)[C@H](CC(C)C)NC(=O)[C@H](Cc1ccccc1)NC(=O)[C@H](CCC(=O)O)NC(=O)[C@H](C)NC(=O)[C@H](CC(C)C)NC(=O)[C@H](CCCNC(=N)N)NC(=O)[C@H](CCC(N)=O)NC(=O)[C@@H](NC(=O)[C@H](C)NC(=O)[C@@H]1CSSC[C@H](NC(=O)[C@H](CCC(=O)O)NC(=O)[C@H](CCCNC(=N)N)NC(=O)[C@H](CCC(=O)O)NC(=O)CC[C@H](NC(=O)CCCCCCCCCCCCCCCCCCC(=O)O)C(=O)O)C(=O)N[C@@H](CC(N)=O)C(=O)N[C@@H]([C@@H](C)O)C(=O)N[C@@H](C)C(=O)N[C@@H]([C@@H](C)O)C(=O)N1)[C@@H](C)O)C(=O)N[C@@H](CC(C)C)C(=O)N1CCC[C@H]1C(=O)N1CCC[C@H]1C(=O)N[C@H](C(=O)N[C@@H](CC(N)=O)C(=O)N[C@H](C(=O)NCC(=O)N[C@@H](CO)C(=O)N[C@@H](CC(N)=O)C(=O)N[C@H](C(=O)N1CCC[C@H]1C(N)=O)[C@@H](C)O)C(C)C)[C@@H](C)O` [Example 123, N-alpha-[(S)-4-Carboxy-4-(19-carboxynonadecanoylamino)butyryl]-Glu-Arg-[Glu1,Glu14,His17,Pro37]-pramlintide] ({C20 diacid-γGlu}-ERECNTATCATQRLAEFLHHSSNNFGPILPPTNVGSNTP-NH2; disulfide 4-9 (inferred)): the figures for the 50% effective concentration (EC50) in data set [1] (setting [13]) and in data set [2] (setting [14]) were 0.136 nM and 0.378 nM, respectively. In data set [3] (ThT fibrillation assay), the “ThT pH 4.0 lag time (h)” value is given as 8.7 h. Moreover, the solubility at 18 h in data set [4] (setting [5]), in data set [4] (setting [6]), in data set [4] (setting [15]), in data set [4] (setting [7]), in data set [4] (setting [8]) and in data set [4] (setting [9]) was > 200 µM in each case. For the same molecule, the solubility at 18 h in data set [4] (setting [10]), in data set [4] (setting [16]), in data set [4] (setting [11]) and in data set [4] (setting [12]) was > 200 µM throughout.
Take `CC[C@H](C)[C@H](NC(=O)[C@@H]1CCCN1C(=O)CNC(=O)[C@H](Cc1ccccc1)NC(=O)[C@H](CC(N)=O)NC(=O)[C@H](CC(N)=O)NC(=O)[C@H](CO)NC(=O)[C@H](CO)NC(=O)[C@H](Cc1c[nH]cn1)NC(=O)[C@H](CCCNC(=N)N)NC(=O)[C@H](CC(C)C)NC(=O)[C@H](Cc1ccccc1)NC(=O)[C@H](CCC(=O)O)NC(=O)[C@H](C)NC(=O)[C@H](CC(C)C)NC(=O)[C@H](CCCNC(=N)N)NC(=O)[C@H](CCC(N)=O)NC(=O)[C@@H](NC(=O)[C@H](C)NC(=O)[C@@H]1CSSC[C@H](NC(=O)[C@H](CCC(=O)O)NC(=O)[C@H](CCCNC(=N)N)NC(=O)[C@H](CCC(=O)O)NC(=O)CC[C@H](NC(=O)CCCCCCCCCCCCCCCCCCC(=O)O)C(=O)O)C(=O)N[C@@H](CC(N)=O)C(=O)N[C@@H]([C@@H](C)O)C(=O)N[C@@H](C)C(=O)N[C@@H]([C@@H](C)O)C(=O)N1)[C@@H](C)O)C(=O)N[C@@H](CC(C)C)C(=O)N1CCC[C@H]1C(=O)N1CCC[C@H]1C(=O)N[C@H](C(=O)N[C@@H](CC(N)=O)C(=O)N[C@H](C(=O)NCC(=O)N[C@@H](CO)C(=O)N[C@@H](CC(N)=O)C(=O)N[C@H](C(=O)N1CCC[C@H]1C(N)=O)[C@@H](C)O)C(C)C)[C@@H](C)O` [Example 124, N-alpha-[(S)-4-Carboxy-4-(19-carboxynonadecanoylamino)butyryl]-Glu-Arg-[Glu1,Glu14,Arg17,Pro37]-pramlintide] ({C20 diacid-γGlu}-ERECNTATCATQRLAEFLRHSSNNFGPILPPTNVGSNTP-NH2; disulfide 4-9 (inferred)): the concentration for a half-maximal effect (EC50) was found to be 0.0895 nM in data set [1] (setting [13]) and 0.367 nM in data set [2] (setting [14]). The “ThT pH 4.0 lag time” value in data set [3] (Table 8), in data set [3] (Table 9) and in data set [3] (ThT fibrillation assay) was >45 h in each case. Besides, the “ThT pH 4.0 lag time (h)” value in data set [3] (ThT fibrillation assay) is >45 h. Besides, the solubility at 18 h in data set [4] (setting [5]) is > 200 µM; in data set [4] (setting [6]) it was > 200 µM; in data set [4] (setting [15]) it was > 200 µM; in data set [4] (bistrispropane buffer, pH 7, pH 7.0, Table 8, read-out: Solubility pH 7.0), > 200 µM; in data set [4] (bistrispropane buffer, pH 7, pH 7.0, Table 9, read-out: Solubility pH 7.0) it was > 200 µM; in data set [4] (setting [7]) it was > 200 µM. For the same molecule, the solubility at 18 h is > 200 µM in data set [4] (bistrispropane buffer, pH 7.5, pH 7.5, Table 9, read-out: Solubility pH 7.5); > 200 µM in data set [4] (setting [8]); > 200 µM in data set [4] (setting [9]); > 200 µM in data set [4] (setting [10]); > 200 µM in data set [4] (setting [16]); > 200 µM in data set [4] (setting [11]). The solubility at 18 h in data set [4] (setting [12]) was > 200 µM.

One may read the EC50 as the midpoint of the concentration-response curve. One may read the solubility as how much of the substance goes into solution per volume.
